In patent US9814241B2:

Key:
Alternaria solani = assay: Alternaria test (tomatoes)/preventive; format: in vivo; conditions: preventive, evaluated 3 days after inoculation
Venturia inaequalis = assay: Venturia test (apples)/preventive; conditions: preventive, 100 ppm a.i., evaluated 10 days after inoculation
Description: After the spray coating has dried on, the plants are inoculated with an aqueous conidia suspension of the causal agent of apple scab (Venturia inaequalis) and then remain for 1 day in an incubation cabinet at approximately 20° C. and a relative atmospheric humidity of 100%.
The plants are then placed in a greenhouse at approximately 21° C. and a relative atmospheric humidity of approximately 90%.
The test is evaluated 10 days after the inoculation.

Sphaerotheca fuliginea = assay: Sphaerotheca test (cucumbers)/preventive; conditions: preventive, 100 ppm a.i., evaluated 7 days after inoculation
Description: After the spray coating has dried on, the plants are inoculated with an aqueous spore suspension of Sphaerotheca fuliginea. The plants are then placed in a greenhouse at approximately 23° C. and a relative atmospheric humidity of approximately 70%.
The test is evaluated 7 days after the inoculation.

Molecule: fosetyl-aluminium [F281]
- Efficacy in % Found (Alternaria solani; Table C2, tomatoes, 100 ppm a.i.): 0%

Molecule: Cc1cc(C(F)(F)F)nn1CC(=O)N1CCC(c2nc(C3=NOC(c4c(F)cccc4F)C3)cs2)CC1 (stereo not drawn) [F315, 1-(4-{4-[5-(2,6-difluorophenyl)-4,5-dihydro-1,2-oxazol-3-yl]-1,3-thiazol-2-yl}piperidin-1-yl)-2-[5-methyl-3-(trifluoromethyl)-1H-pyrazol-1-yl]ethanone]
- Efficacy in % Found (Alternaria solani; Table C1, tomatoes, 100 ppm a.i.): 0%

Molecule: N#Cc1ccccc1NC(=O)c1snc(Cl)c1Cl [F187, isotianil]
- Efficacy in % Found (Alternaria solani; Table C1, tomatoes, 50 ppm a.i.): 36%
- Efficacy in % Found (Venturia inaequalis): 0%
- Efficacy in % Found (Sphaerotheca fuliginea): 0%

Molecule: phosphorous acid and its salts [F298]
- Efficacy in % Found (Alternaria solani; Table C2, tomatoes, 400 ppm a.i.): 35%
